Test results taken from publication PMC5693757 (Journal of molecular biology, 2017).
Values belong to the molecule of their own block, whether it stands above or below them.

Legend:
Type in all cases: binding
[1] = target: T1, ARL2 (Homo sapiens, UniProt P36404); test: radioligand nitrocellulose filter trapping
[2] = target: T1, ARL2; test: HDX-MS
[3] = target: T1, ARL2; test: real-time mant fluorescence association/dissociation kinetics

T1 sequence (P36404 2-184): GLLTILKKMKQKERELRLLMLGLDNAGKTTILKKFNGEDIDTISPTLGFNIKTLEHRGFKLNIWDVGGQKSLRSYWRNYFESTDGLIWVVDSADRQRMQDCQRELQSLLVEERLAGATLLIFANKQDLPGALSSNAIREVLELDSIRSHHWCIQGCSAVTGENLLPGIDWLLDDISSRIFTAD

Molecule: Nc1nc2c(ncn2[C@@H]2O[C@H](COP(=O)(O)OP(=O)(O)OP(O)(O)=S)[C@@H](O)[C@H]2O)c(=O)[nH]1 [GTPγS]
radioligand nitrocellulose filter trapping; HDX-MS [1]: Human ARL2 monomer, exogenously expressed and purified from E. coli or HEK cells, bound GTPγS to similar stoichiometries

Molecule: Nc1nc2c(ncn2[C@@H]2O[C@H](COP(=O)(O)OP(=O)(O)O)[C@@H](O)[C@H]2O)c(=O)[nH]1 [GDP]
HDX-MS [2]: addition of GDP to ARL2 (apo→GDP) resulted in large protection to deuterium uptake at the conserved nucleotide-binding motifs G1 and G4

Kd [3]: 590 nM
Molecule: mant-Gpp(NH)p
